Laboratory results as given in PMC12767106, “In Situ Assembly of Transformable Monopeptide on Activated Neutrophils Attenuates NETs‐Induced Hepatocellular Carcinoma Metastasis by Disrupting NE Nuclear Translocation” (Advanced Science, 2025).

Experiments:
resting neutrophils = assay: CCK-8 cytotoxicity; format: cell-based, mouse; conditions: CCK-8, 24 h, different dosages
Method: The supernatant was discarded, and the red blood cells were lysed with RBC lysate. The neutrophils were then washed with PBS again, and the supernatant was discarded. The cells were resuspended in culture medium and used for further experiments. […]
10 minutes to remove unbound particles, and the supernatant was collected. […]
In vitro cytotoxicity assay
The CCK-8 assay was used to assess the cell viability of Hepa1-6/luc, resting neutrophils, and activated neutrophils. Following the seeding of 1*10^4 cells per well on a 96-well plate, the cells were subjected to different dosages of FTP-NPs and NFTP-NPs (medium: DMSO = 99:1 v/v). After 24 hours, the cells were incubated for two hours with 10 µL of CCK-8 solution. Finally, a microplate reader (Tecan Infinite M200, Switzerland) was used to measure cell viability based on the absorbance values.
Targeting the capability of NEBP
To evaluate the targeting capability of NE-binding peptide (NEBP), the harvested resting neutrophils and […]

[1] = test system: mouse red blood cells (RBCs); assay: Hemolysis assay; format: cell-based; conditions: 2% RBC suspension in PBS, 1 h, 37 °C, absorbance at 541 nm, triplicate
Method: Hemolysis Assay of FTP-NPs
To assess the hemolytic activity of FTP-NPs, red blood cells (RBCs) were harvested from C57BL/6 mice (aged 6–8 weeks, female). The mice were euthanized by cervical dislocation, and blood was collected via cardiac puncture into heparinized tubes. Blood was then immediately diluted with an equal volume of phosphate-buffered saline (PBS) and centrifuged at 1500 g for 10 minutes to isolate the RBCs. The supernatant was discarded, and the RBC pellet was washed three times with PBS to remove any residual plasma and other cellular components. The final RBC suspension was adjusted to a 2% hematocrit using PBS. FTP-NPs were synthesized as described previously. Briefly, FTP-NPs were prepared by self-assembly of peptidic […]
concentration was tested in triplicate. For the hemolysis assay, 200 μL of the 2% RBC suspension was incubated with 200 μL of FTP-NPs at the specified concentrations in a 96-well plate for 1 hour at 37°C under gentle shaking. […] The hemoglobin released into the supernatant was quantified by measuring the absorbance at 541 nm (A541) using a microplate reader. The percentage of hemolysis was calculated using the following formula: Hemolysis %= (Asample−ANC)/ (APC−ANC) *100%. Where Asample is the absorbance of the sample, ANC is the absorbance of the negative control, and APC is the absorbance of the positive control. […]

With PpIX-GFFVLK-EAIPMSIPPEVK [FTP-NPs] the survival rate (resting neutrophils) was “over 95%” and the “maximum observed hemolysis rate” value [1] was “approximately 0.9%”.
